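Five concentrations, 48 hours, 96-well plates. GI50 = concentration required for 50% inhibition of growth.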 Calls of active or inactive are those of the source. Cut-off read from the data, not from the text of the source: active = GI50 up to about 1.1 µM and inactive = higher. Where only a bound is given, the exact number is not on record here.

From ChEMBL document CHEMBL1201862, “PubChem BioAssay data set” (2004) come the findings set out here.

Some test systems named below: Malme-3M; UACC-62; SK-OV-3; SNB-19; DMS-114; UACC-257; OVCAR-4; HT-29; SN12C; RXF 393; NCI-H23; NCI-H522; DMS-273; HOP-18; HOP-62; OVCAR-5; EKVX; SW-620; CAKI-1; SR.
Assay in all cases: NCI-60 cell line screen, 48 h

As for `O=C(NN1C(=O)C(Cl)C1c1cccc(O)c1)c1ccccc1O` (configuration not stated), the GI50 in the test with Malme-3M, in the test on UACC-62, in the test on SK-OV-3, in the test on SNB-19, in the test on DMS-114 and in the test on UACC-257 was > 100 µM (inactive) in each case. Further, the GI50 in the test with OVCAR-4, in the test with HT-29, with SN12C, in the test with RXF 393, in the test on NCI-H23 and with NCI-H522 was > 100 µM (inactive) each time. In addition, the GI50 is > 100 µM (inactive) in the test with DMS-273 and 24.8 µM (inactive) in the test with HOP-18.
`O=c1[nH]c2cc(-c3ccccc3)nc-2nn1-c1c(Cl)cc(Cl)cc1Cl`: the GI50 is 24.4 µM (inactive) in the test on Malme-3M; 17.5 µM (inactive) in the test on UACC-62; 25.8 µM (inactive) with SK-OV-3; 33.1 µM (inactive) with SNB-19; > 100 µM (inactive) in the test with DMS-114; 29.5 µM (inactive) with UACC-257. For the same compound, the GI50 in the test on HT-29 was 34.4 µM (inactive); in the test with HOP-62, 25.5 µM (inactive); with OVCAR-5, 39.4 µM (inactive); with SN12C, 28.6 µM (inactive); in the test with EKVX it was 24.9 µM (inactive); in the test with SW-620, 33.7 µM (inactive). Also, the GI50 in the test with NCI-H23 was 24.9 µM (inactive); with CAKI-1 it was 27.5 µM (inactive); in the test with SR, 23.7 µM (inactive); with NCI-H522, 28.8 µM (inactive); with DMS-273 it was 37.3 µM (inactive); with HOP-18, 18.8 µM (inactive).
`COCCCNC(=O)C1C(=O)C(=O)N(CCCOC)C1=O` (configuration not stated): the GI50 with Malme-3M, in the test on UACC-62, in the test with SK-OV-3, in the test on SNB-19, in the test with DMS-114 and in the test with UACC-257 was > 100 µM (inactive) in each case. The GI50 in the test with OVCAR-4, with HT-29, in the test with HOP-62, in the test with OVCAR-5, in the test with SN12C and in the test on EKVX was > 100 µM (inactive) in each case. Also, the GI50 in the test on SW-620, in the test with NCI-H23, in the test with CAKI-1, in the test on SR, with NCI-H522 and with DMS-273 was > 100 µM (inactive) throughout. In addition, the GI50 in the test on HOP-18 was > 100 µM (inactive).
As for `C=C=C(C(=O)OC)[S+]([O-])c1ccccc1[N+](=O)[O-]` (configuration not stated), the GI50 with Malme-3M, with UACC-62, with SK-OV-3, in the test with SNB-19, in the test with DMS-114 and in the test on UACC-257 was > 100 µM (inactive) in each case. The GI50 with OVCAR-4, in the test on HT-29, with HOP-62, in the test with OVCAR-5, in the test with SN12C and with RXF 393 was > 100 µM (inactive) in each case. For the same compound, the GI50 in the test with EKVX is > 100 µM (inactive); in the test on SW-620, 99.5 µM (inactive); with NCI-H23 it was > 100 µM (inactive); in the test with CAKI-1, > 100 µM (inactive); with NCI-H522 it was 22.3 µM (inactive); with DMS-273 it was > 100 µM (inactive). In the test with HOP-18, the GI50 was > 100 µM (inactive).
As to `C=CCNC(=O)N(CCCC(NC(C)=O)C(=O)NCc1ccccc1)Cc1ccccc1` (configuration not stated), the GI50 in the test on Malme-3M, with UACC-62, in the test on SK-OV-3, in the test on SNB-19, with DMS-114 and in the test with UACC-257 was > 100 µM (inactive) each time. Also, the GI50 in the test with OVCAR-4, with HT-29, in the test with HOP-62, in the test on OVCAR-5, in the test on SN12C and with RXF 393 was > 100 µM (inactive) throughout. For the same compound, the GI50 in the test with EKVX, in the test on SW-620, in the test with NCI-H23, in the test on CAKI-1, in the test on NCI-H522 and in the test on DMS-273 was > 100 µM (inactive) throughout. The GI50 in the test on HOP-18 is > 100 µM (inactive).
As for `CC(C)C1N2CCCCC2[C@@H]2c3[nH]c4ccccc4c3CCN12` (some centres not stated), the GI50 in the test on UACC-62, with SK-OV-3, in the test with SNB-19, in the test on DMS-114, in the test on UACC-257 and with OVCAR-4 was > 100 µM (inactive) each time. In addition, the GI50 in the test on HT-29, in the test on HOP-62, with OVCAR-5, in the test with SN12C, in the test with RXF 393 and with EKVX was > 100 µM (inactive) each time. For the same compound, the GI50 with SW-620, in the test with NCI-H23, in the test on CAKI-1, with DMS-273 and in the test on HOP-18 was > 100 µM (inactive) throughout.
Turning to `CCOc1ccccc1NC(=O)/C=C1\NC(=O)CS1`, the GI50 is 50.5 µM (inactive) with Malme-3M; > 100 µM (inactive) in the test on UACC-62; > 100 µM (inactive) in the test with SK-OV-3; > 100 µM (inactive) in the test with SNB-19; > 100 µM (inactive) in the test on DMS-114; > 100 µM (inactive) in the test on OVCAR-4. In addition, the GI50 in the test on HT-29, in the test with HOP-62, in the test with OVCAR-5, in the test on SN12C, in the test with RXF 393 and in the test with EKVX was > 100 µM (inactive) each time. The GI50 in the test on SW-620 was > 100 µM (inactive); in the test with NCI-H23, > 100 µM (inactive); in the test with CAKI-1 it was > 100 µM (inactive); in the test on NCI-H522 it was 86.1 µM (inactive); in the test on DMS-273, > 100 µM (inactive); in the test with HOP-18, 98.2 µM (inactive).
Regarding `N=C(N)N/N=C(/CC1OC(=O)c2ccccc21)c1ccc2ccccc2c1` (configuration not stated), the GI50 with Malme-3M is 14.5 µM (inactive); in the test on UACC-62 it was 17.9 µM (inactive); in the test on SK-OV-3 it was 21.9 µM (inactive); in the test with SNB-19, > 100 µM (inactive); in the test with DMS-114, 12.9 µM (inactive); in the test with UACC-257, 14.6 µM (inactive). Also, the GI50 in the test with OVCAR-4 was 17.2 µM (inactive); with HT-29, 21.9 µM (inactive); with HOP-62, 18.5 µM (inactive); in the test on OVCAR-5, 30.1 µM (inactive); in the test on SN12C, 19.6 µM (inactive); with EKVX, 23.1 µM (inactive). For the same compound, the GI50 in the test with NCI-H23 was 26.2 µM (inactive); with CAKI-1 it was > 100 µM (inactive); in the test on SR, 14.2 µM (inactive); in the test with NCI-H522, 14.2 µM (inactive); in the test with DMS-273 it was 21.6 µM (inactive); in the test on HOP-18 it was 18.5 µM (inactive).
In the case of `COc1ccc(C2c3cc4c(cc3OC(O)(CO)C2C(=O)O)OCO4)cc1.COc1ccc(C2c3cc4c(cc3OC3(O)COC(=O)C23)OCO4)cc1` (configuration not stated), the GI50 in the test on Malme-3M is 26.9 µM (inactive); with UACC-62, 17.7 µM (inactive); with SK-OV-3, 40.1 µM (inactive); with DMS-114 it was 22.2 µM (inactive); in the test with UACC-257 it was 21.5 µM (inactive); in the test with OVCAR-4, > 100 µM (inactive). Further, the GI50 was 24.7 µM (inactive) with HT-29; 33.7 µM (inactive) with HOP-62; 39.4 µM (inactive) in the test on OVCAR-5; 23.7 µM (inactive) with SN12C; 16.9 µM (inactive) in the test with RXF 393; 31.4 µM (inactive) with EKVX. Besides, the GI50 is 18.7 µM (inactive) with SW-620; 23.4 µM (inactive) with NCI-H23; 19.2 µM (inactive) in the test on SR; 4.14 µM (inactive) with DMS-273; 50.4 µM (inactive) in the test on HOP-18.
Turning to `C[C@]12Cc3cn[nH]c3C(=O)C1CC[C@@H]1C2CC[C@@]2(C)C1CC[C@]2(C)O` (some centres not stated), the GI50 with Malme-3M, in the test on UACC-62, in the test on SK-OV-3, in the test with SNB-19, in the test on DMS-114 and in the test with UACC-257 was > 100 µM (inactive) each time. Besides, the GI50 in the test with OVCAR-4, in the test with HT-29, in the test with HOP-62, with OVCAR-5, in the test with SN12C and in the test on RXF 393 was > 100 µM (inactive) in each case. In addition, the GI50 in the test with EKVX, in the test with SW-620, with NCI-H23, in the test on CAKI-1, in the test with NCI-H522 and in the test on DMS-273 was > 100 µM (inactive) in each case. For the same compound, the GI50 with HOP-18 is > 100 µM (inactive).
For `CC[C@@H](C(=O)[C@@H](C)[C@@H](O)[C@H](C)CCc1ccc(C)c(O)c1C(=O)O)[C@H]1O[C@](CC)([C@H]2CC[C@](O)(CC)[C@H](C)O2)C[C@@H]1C` [LASALOCID A SODIUM], the GI50 in the test on Malme-3M is 1.05 µM (active); in the test with UACC-62, 1.81 µM (inactive); in the test with SK-OV-3, 2.92 µM (inactive); with SNB-19, 1.3 µM (inactive); in the test on DMS-114 it was 0.946 µM (active); in the test with UACC-257 it was 2.99 µM (inactive). Further, the GI50 in the test with OVCAR-4 was 3.23 µM (inactive); with HT-29, 1.06 µM (active); with HOP-62, 1.38 µM (inactive); with OVCAR-5, 6.47 µM (inactive); in the test with SN12C, 1.91 µM (inactive); in the test on EKVX, 2.16 µM (inactive). Moreover, the GI50 in the test with SW-620 was 2.33 µM (inactive); in the test on NCI-H23 it was 1.39 µM (inactive); with CAKI-1, 1.84 µM (inactive); in the test on SR it was 1.12 µM (inactive); with NCI-H522, 1.01 µM (active); with DMS-273, 1.71 µM (inactive). Further, the GI50 in the test with HOP-18 was 3.08 µM (inactive).
